In patent US9321767B2, “Azabenzimidazoles as respiratory syncytial virus antiviral agents” (JANSSEN SCIENCES IRELAND UC, priority 2010, dated 2016):

Experiments:
rgRSV224 virus = assay: microbe, parasite or virus in culture; assay type: cell-based, respiratory syncytial virus (RSV); conditions: human respiratory syncytial virus, HeLa, 72 h, read-out: RSV-wt_EC50
Procedure: (§1) Black 96-well clear-bottom microtiter plates (Corning, Amsterdam, The Netherlands) were filled in duplicate using a customized robot system with serial 4-fold dilutions of compound in a final volume of 50 μl culture medium [RPMI medium without phenol red, 10% FBS, 0.04% gentamycin (50 mg/mL) and 0.5% DMSO]. Then, 100 μl of a HeLa cell suspension (5×10^4 cells/mL) in culture medium was added to each well followed by the addition of 50 μl rgRSV224 (MOI=0.02) virus in culture medium using a multidrop dispenser (Thermo Scientific, Erembodegem, Belgium). rgRSV224 virus is an engineered virus that includes an additional GFP gene (Hallak et al, 2000) and was in-licensed from the NIH (Bethesda, Md., USA). Medium, virus- and mock-infected controls were included in each test. Cells were incubated at 37° C. in a 5% CO2 atmosphere. Three days post-virus exposure, viral replication was quantified by measuring GFP expression in the cells by a MSM laser microscope (Tibotec, Beerse, Belgium). The EC50 was defined as the 50% inhibitory concentration for GFP expression. In parallel, compounds were incubated for three days in a set of white 96-well microtitier plates (Corning) and the cytotoxicity of compounds in HeLa cells was determined by measuring the ATP content of the cells using the ATPlite kit (PerkinElmer, Zaventem, Belgium) according to the manufacturer's instructions. The CC50 was defined as the 50% concentration for cytotoxicity.

HeLa cells = assay: Cytotoxicity in HeLa cells, ATP content (ATPlite kit); assay type: cell-based; conditions: HeLa cells, three days incubation, ATP content
Procedure: as §1

For `O=c1n(Cc2nc3ncccc3n2CCCCF)c2cnccc2n1C1CC1` [Compound 42, 1-cyclopropyl-3-((1-(4-fluorobutyl)-1H-imidazo[4,5-b]pyridin-2-yl)methyl)-1H-imidazo[4,5-c]pyridin-2(3H)-one], the EC50 (rgRSV224 virus) was 5.2 nM and the TOX-HELA_EC50 (HeLa cells) was greater than 98.3603 µM.
Molecule `CC(C)CCn1c(Cn2c(=O)n(C3CC3)c3ccncc32)nc2nc(C(F)(F)F)ccc21` [Compound 44, 1-cyclopropyl-3-((1-isopentyl-5-(trifluoromethyl)-1H-imidazo[4,5-b]pyridin-2-yl)methyl)-1H-imidazo[4,5-c]pyridin-2(3H)-one] has an EC50 (rgRSV224 virus) of 19 nM and a TOX-HELA_EC50 (HeLa cells) greater than 98.3603 µM.
